# According to patent US8741836B2, “Polypeptides” (Novo Nordisk A/S, priority 2011, dated 2014):
# Starred links: 1 amine or outer side, 2 acyl side, 3 side chain; linkers in the order of their positions; H or OH if unused. Positions of bridges follow the written chain, without caps; N, C: chain ends. Residues, ends and D or L forms follow the SMILES beside them. *: point of attachment. C20 diacid = O=C(O)CCCCCCCCCCCCCCCCCCC(=O)*; γGlu = O=C(O)[C@H](CCC(=O)[*:2])N[*:1]
# Test: Assay (III) ThT fibrillation assay for physical stability
# Format: physicochemical
# Details: for ThT pH 4.0 lag time: pH 4.0, ThT fibrillation assay
# How it was run: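 Freshly prepared, pH-adjusted formulations with 1 μM ThT incubated at 37 °C under 960 rpm orbital shaking (1 mm), fluorescence (ex 444, em 485 nm) read every 20 min. […] Peptide content before and after measured by reverse-phase HPLC against pramlintide standard.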
ThT pH 4.0 lag time (physical stability in fibrillogenesis assay),ThT pH 4.0 lag time,SMILES
>45 h,>45 h,"CC[C@H](C)[C@H](NC(=O)[C@@H]1CCCN1C(=O)CNC(=O)[C@H](Cc1ccccc1)NC(=O)[C@H](CCC(N)=O)NC(=O)[C@H](CCC(N)=O)NC(=O)[C@H](CO)NC(=O)[C@H](CO)NC(=O)[C@H](Cc1c[nH]cn1)NC(=O)[C@H](CCCNC(=N)N)NC(=O)[C@H](CC(C)C)NC(=O)[C@H](Cc1ccccc1)NC(=O)[C@H](CCC(=O)O)NC(=O)[C@H](C)NC(=O)[C@H](CC(C)C)NC(=O)[C@H](CCCNC(=N)N)NC(=O)[C@H](CCC(N)=O)NC(=O)[C@@H](NC(=O)[C@H](C)NC(=O)[C@@H]1CSSC[C@H](NC(=O)[C@H](CCC(=O)O)NC(=O)[C@H](CCCNC(=N)N)NC(=O)[C@H](CCC(=O)O)NC(=O)CC[C@H](NC(=O)CCCCCCCCCCCCCCCCCCC(=O)O)C(=O)O)C(=O)N[C@@H](CC(N)=O)C(=O)N[C@@H]([C@@H](C)O)C(=O)N[C@@H](C)C(=O)N[C@@H]([C@@H](C)O)C(=O)N1)[C@@H](C)O)C(=O)N[C@@H](CC(C)C)C(=O)N1CCC[C@H]1C(=O)N1CCC[C@H]1C(=O)N[C@H](C(=O)N[C@@H](CCC(N)=O)C(=O)N[C@H](C(=O)NCC(=O)N[C@@H](CO)C(=O)N[C@@H](CCC(N)=O)C(=O)N[C@H](C(=O)N1CCC[C@H]1C(N)=O)[C@@H](C)O)C(C)C)[C@@H](C)O [Example 164, N-alpha-[(S)-4-Carboxy-4-(19-carboxynonadecanoylamino)butyryl]-Glu-Arg-[Glu1,Glu14,Arg17,Gln21,Gln22,Gln31,Gln35,Pro37]-pramlintide] ({C20 diacid-γGlu}-ERECNTATCATQRLAEFLRHSSQQFGPILPPTQVGSQTP-NH2; disulfide 4-9 (inferred))"
>45 h,>45 h,"CC[C@H](C)[C@H](NC(=O)[C@@H]1CCCN1C(=O)CNC(=O)[C@H](Cc1ccccc1)NC(=O)[C@H](CO)NC(=O)[C@H](CO)NC(=O)[C@H](CO)NC(=O)[C@H](CO)NC(=O)[C@H](CCCNC(=N)N)NC(=O)[C@@H](NC(=O)[C@H](CC(C)C)NC(=O)[C@H](Cc1ccccc1)NC(=O)[C@H](CCC(=O)O)NC(=O)[C@H](C)NC(=O)[C@H](CC(C)C)NC(=O)[C@H](CCCNC(=N)N)NC(=O)[C@H](CCC(N)=O)NC(=O)[C@@H](NC(=O)[C@H](C)NC(=O)[C@@H]1CSSC[C@H](NC(=O)[C@H](CCCCN)NC(=O)CC[C@H](NC(=O)CCCCCCCCCCCCCCCCCCC(=O)O)C(=O)O)C(=O)N[C@@H](CC(N)=O)C(=O)N[C@@H]([C@@H](C)O)C(=O)N[C@@H](C)C(=O)N[C@@H]([C@@H](C)O)C(=O)N1)[C@@H](C)O)C(C)C)C(=O)N[C@@H](CC(C)C)C(=O)N[C@@H](CO)C(=O)N[C@@H](CO)C(=O)N[C@H](C(=O)N[C@@H](CC(=O)O)C(=O)N[C@H](C(=O)NCC(=O)N[C@@H](CO)C(=O)N[C@@H](CC(=O)O)C(=O)N[C@H](C(=O)N1CCC[C@H]1C(N)=O)[C@@H](C)O)C(C)C)[C@@H](C)O [Example 170, N-alpha-[(S)-4-Carboxy-4-(19-carboxynonadecanoylamino)butyryl]-[Glu14,Arg18,Ser21,Ser22,Ser28,Ser29,Asp31,Asp35,Pro37]-pramlintide] ({C20 diacid-γGlu}-KCNTATCATQRLAEFLVRSSSSFGPILSSTDVGSDTP-NH2; disulfide 2-7)"
,>45 h,CC[C@H](C)[C@H](NC(=O)[C@@H]1CCCN1C(=O)CNC(=O)[C@H](Cc1ccccc1)NC(=O)[C@H](CC(N)=O)NC(=O)[C@H](CC(N)=O)NC(=O)[C@H](CO)NC(=O)[C@H](CO)NC(=O)[C@H](Cc1c[nH]cn1)NC(=O)[C@H](CCCNC(=N)N)NC(=O)[C@H](CC(C)C)NC(=O)[C@H](Cc1ccccc1)NC(=O)[C@H](CCC(=O)O)NC(=O)[C@H](C)NC(=O)[C@H](CC(C)C)NC(=O)[C@H](CCCNC(=N)N)NC(=O)[C@H](CCC(N)=O)NC(=O)[C@@H](NC(=O)[C@H](C)NC(=O)[C@@H]1CSSC[C@H](NC(=O)[C@H](CCCNC(=N)N)NC(=O)[C@H](CCC(=O)O)NC(=O)CC[C@H](NC(=O)CCCCCCCCCCCCCCCCCCC(=O)O)C(=O)O)C(=O)N[C@@H](CC(N)=O)C(=O)N[C@@H]([C@@H](C)O)C(=O)N[C@@H](C)C(=O)N[C@@H]([C@@H](C)O)C(=O)N1)[C@@H](C)O)C(=O)N[C@@H](CC(C)C)C(=O)N1CCC[C@H]1C(=O)N1CCC[C@H]1C(=O)N[C@H](C(=O)N[C@@H](CC(N)=O)C(=O)N[C@H](C(=O)NCC(=O)N[C@@H](CO)C(=O)N[C@@H](CC(N)=O)C(=O)N[C@H](C(=O)N1CCC[C@H]1C(N)=O)[C@@H](C)O)C(C)C)[C@@H](C)O [compound 156] ({C20 diacid-γGlu}-ERCNTATCATQRLAEFLRHSSNNFGPILPPTNVGSNTP-NH2; disulfide 3-8 (inferred))
